The nature of series [1]: Molar enthalpy of transition or fusion. The conditions noted are these: Crystal; DSC.
For series [2] the following is noted: Crystal; DTA.

Results on one compound are retold here after the NIST ThermoML archive (doi:10.1016/j.jct.2017.01.004).

Numbers after ± are expanded uncertainties.

Regarding `O=C(O)CO` [2-hydroxyethanoic acid], the “Molar enthalpy of transition or fusion” value in series [1] was 4.76 ± 0.263 kcal/mol. In series [2], the Normal melting temperature was determined as 77.60 ± 1.1 °C.
